The values below come from the CombiSolv-Exp solvation set (Vermeire and Green 2021).

The nature of the data set: solvent given as SMILES.
The mark [1] stands for this setting: in CCCCCCCC(=O)OCC(COC(=O)CCCCCCC)OC(=O)CCCCCCC.

In the case of `COc1ccccc1C(=O)O`, the “solvation free energy, 298 K” value runs as follows: (in C1CCOC1) -11.8 kcal/mol; (in C1COCCO1) -11.7 kcal/mol; (in CC(C)(C)O) -11 kcal/mol; (in CC(C)CCO) -10.8 kcal/mol; (in CC(C)CO) -10.9 kcal/mol; (in CC(C)O) -10.9 kcal/mol. The “solvation free energy, 298 K” value (in CC(C)OCCO) was -11.2 kcal/mol; the “solvation free energy, 298 K” value (in CC(O)COC(C)(C)C) was -11 kcal/mol; the “solvation free energy, 298 K” value (in CCC(C)O) is -11 kcal/mol; the “solvation free energy, 298 K” value (in CCCC(C)O) was -10.8 kcal/mol; the “solvation free energy, 298 K” value (in CCCCCCCCCCO) was -10.5 kcal/mol; the “solvation free energy, 298 K” value (in CCCCCCCO) is -10.8 kcal/mol. In addition, the “solvation free energy, 298 K” value runs as follows: (in CCCCCCO) -10.8 kcal/mol; (in CCCCCO) -10.9 kcal/mol; (in CCCCCOC(C)=O) -10.6 kcal/mol; (in CCCCO) -11.1 kcal/mol; (in CCCCOC(C)=O) -10.8 kcal/mol; (in CCCCOCCO) -11.4 kcal/mol. The “solvation free energy, 298 K” value is -11.2 kcal/mol (in CCCO); -11.3 kcal/mol (in CCCOCCO); -11.5 kcal/mol (in CCO); -11.2 kcal/mol (in CCOC(C)=O); -10.5 kcal/mol (in CCOCC); -11.5 kcal/mol (in CCOCCO). The “solvation free energy, 298 K” value by setting is: (in CO) -11.8 kcal/mol; (in COC(C)=O) -11.3 kcal/mol; (in COC(C)CCO) -11.4 kcal/mol.

As to `CC1(C)C2=CCCC(C)(C)C23CCC1C3` (centres undefined), the “solvation free energy, 298 K” value (in O) is 0.71 kcal/mol.

As to `CSSC`, the “solvation free energy, 298 K” value (in O) is -1.74 kcal/mol.

Take `CCC(=O)c1c(C)[nH]n(-c2ccccc2)c1=O`: the “solvation free energy, 298 K” value (in O) is -9.74 kcal/mol.

As for `CCCCCl`, the “solvation free energy, 298 K” value was -4.57 kcal/mol (in C1CCOC1); -4.52 kcal/mol (in C1CCOCC1); -4.4 kcal/mol (in C1COCCO1); -3.77 kcal/mol (in C=CCCCCCCCCCCCCCC); -3.7 kcal/mol (in CC(C)(C)O); -4.26 kcal/mol (in CC(C)=O). For the same compound, the “solvation free energy, 298 K” value runs as follows: (in CC(C)CC(C)(C)C) -3.91 kcal/mol; (in CC(C)CO) -3.72 kcal/mol; (in CC(C)OC(C)C) -4.21 kcal/mol; (in CCC(C)O) -3.72 kcal/mol; (in CCCBr) -4.49 kcal/mol; (in CCCCCC) -4.05 kcal/mol. The “solvation free energy, 298 K” value (in CCCCCCC) was -3.96 kcal/mol; the “solvation free energy, 298 K” value (in CCCCCCCCC=CCCCCCCCC(=O)OCC(COC(=O)CCCCCCCC=CCCCCCCCC)OC(=O)CCCCCCCC=CCCCCCCCC) was -3.93 kcal/mol; the “solvation free energy, 298 K” value (in CCCCCCCCCCCCCCCC) was -3.68 kcal/mol; the “solvation free energy, 298 K” value (in CCCCCCCCCCO) was -3.67 kcal/mol; the “solvation free energy, 298 K” value (in CCCCCCCCO) is -3.71 kcal/mol; the “solvation free energy, 298 K” value (in CCCCOC) was -4.37 kcal/mol. The “solvation free energy, 298 K” value was -4.11 kcal/mol (in CCCCOCCCC); -3.59 kcal/mol (in CCCO); -4.23 kcal/mol (in CCCOCCC); -4.43 kcal/mol (in CCI); -4.31 kcal/mol (in CCOC(C)=O); -4.38 kcal/mol (in CCOCC). The “solvation free energy, 298 K” value is -4.3 kcal/mol (in COC(C)(C)C); -4.31 kcal/mol (in ClC(Cl)(Cl)Cl); -4.43 kcal/mol (in ClCCCl); -4.35 kcal/mol (in Clc1ccccc1); -0.23 kcal/mol (in O); -0.73 kcal/mol (in [2H]O[2H]).

Consider `CCCC(=O)OCCC(C)CCC=C(C)C` (centres undefined), for which the “solvation free energy, 298 K” value (in O) was -2.73 kcal/mol.

Take `CC(F)(F)Cl`: the “solvation free energy, 298 K” value reads like this: under setting [1], -1.84 kcal/mol; (in CCCCCCCCC) -1.74 kcal/mol; (in CCCCCCCCO) -1.62 kcal/mol; (in CN1CCCC1=O) -2.13 kcal/mol; (in CN(C)C=O) -2.09 kcal/mol; (in O) 0.61 kcal/mol.

With `Cc1ccc(N(O)C(=O)c2ccccc2C)cc1`, the “solvation free energy, 298 K” value (in O) was -11.5 kcal/mol.

Take `CCCl`: the “solvation free energy, 298 K” value is -2.93 kcal/mol (in CC(=O)N(C)C); -2.44 kcal/mol (in CC(C)(C)O); -2.43 kcal/mol (in CC(C)CCO); -2.43 kcal/mol (in CC(C)CO); -2.47 kcal/mol (in CC(C)O); -2.5 kcal/mol (in CCC(C)(C)O). The “solvation free energy, 298 K” value is -2.4 kcal/mol (in CCC(C)CO); -2.41 kcal/mol (in CCC(C)O); -2.41 kcal/mol (in CCC(O)CC); -2.36 kcal/mol (in CCCC(C)O); -2.56 kcal/mol under setting [1]; -2.34 kcal/mol (in CCCCCCCCC). For the same compound, the “solvation free energy, 298 K” value was -2.32 kcal/mol (in CCCCCCCCO); -2.47 kcal/mol (in CCCCCO); -2.5 kcal/mol (in CCCCO); -2.54 kcal/mol (in CCCO); -2.74 kcal/mol (in CN(C)C=O); -2.63 kcal/mol (in CO). The “solvation free energy, 298 K” value is, setting by setting: (in Cc1ccc(C)cc1) -2.83 kcal/mol; (in Cc1cccc(C)c1) -2.87 kcal/mol; (in Cc1ccccc1C) -2.86 kcal/mol; (in Clc1ccccc1) -2.96 kcal/mol; (in N#Cc1ccccc1) -2.88 kcal/mol; (in O) -0.63 kcal/mol.

For the compound `CCCCCCCC(=O)OC`, the “solvation free energy, 298 K” value (in O) was -2.04 kcal/mol.

`CC(CC(C)(C)C)CC(C)(C)CC(C)(C)C` (centres undefined): the “solvation free energy, 298 K” value (in O) worked out at 4.46 kcal/mol.

On to `O=Cc1ccc(C(=O)O)cc1`, for which the “solvation free energy, 298 K” value (in CN1CCCC1=O) was -12.8 kcal/mol and the “solvation free energy, 298 K” value (in O) was -8.94 kcal/mol.

On to `CC(C)C(C)(C)O`, for which the “solvation free energy, 298 K” value was -4.6 kcal/mol (in CCCCCCCC) and -4.55 kcal/mol (in CCCCCCCCCC).

For the compound `Clc1cccc(Cl)c1-c1c(Cl)cccc1Cl`, the “solvation free energy, 298 K” value (in O) is -2.17 kcal/mol.

Take `Cc1cc(O)ccc1[N+](=O)[O-]`: the “solvation free energy, 298 K” value (in CCCCOCCCC) is -12.1 kcal/mol and the “solvation free energy, 298 K” value (in O) is -9.89 kcal/mol.

Consider `CCCCC(=O)O`, for which, where the note is “in O”, the “solvation free energy, 298 K” value is -6.13 kcal/mol.

As for `FC(F)(F)Br`, under “in O”, the “solvation free energy, 298 K” value is 1.79 kcal/mol.

`CC(C)(C)Br`: the “solvation free energy, 298 K” value was -3.89 kcal/mol (in Brc1ccccc1); -3.87 kcal/mol (in C1CCOC1); -3.81 kcal/mol (in C1COCCO1); -3.56 kcal/mol (in C=CCCCCCCCCCCCCCC); -3.52 kcal/mol (in CC(=O)N(C)C); -3.36 kcal/mol (in CC(C)(C)O). Further, the “solvation free energy, 298 K” value by setting is: (in CC(C)=O) -3.86 kcal/mol; (in CC(C)O) -3.23 kcal/mol; (in CCCCCC) -3.75 kcal/mol; (in CCCCO) -3.3 kcal/mol; (in CCCO) -3.19 kcal/mol; (in CCOC(C)=O) -4.05 kcal/mol. In addition, the “solvation free energy, 298 K” value (in CCOCC) was -3.85 kcal/mol; the “solvation free energy, 298 K” value (in CN1CCCC1=O) was -3.44 kcal/mol; the “solvation free energy, 298 K” value (in CN(C)C=O) is -3.59 kcal/mol; the “solvation free energy, 298 K” value (in ClC(Cl)(Cl)Cl) is -4.13 kcal/mol; the “solvation free energy, 298 K” value (in ClCCCl) was -4.02 kcal/mol; the “solvation free energy, 298 K” value (in Clc1ccccc1) is -3.93 kcal/mol. Moreover, the “solvation free energy, 298 K” value was -3.64 kcal/mol (in N#Cc1ccccc1) and 0.85 kcal/mol (in O).

In the case of `CCCCCCCCCC(=O)O`, the “solvation free energy, 298 K” value (in O) was -5.28 kcal/mol.

On to `ClCCCCCl`, for which the “solvation free energy, 298 K” value reads like this: (in CC(C)=O) -6.56 kcal/mol; (in O) -2.32 kcal/mol.

Take `CC(C)(C)CCO`: the “solvation free energy, 298 K” value is -4.85 kcal/mol (in CCCCCCCC) and -4.72 kcal/mol (in CCCCCCCCCC).

On to `CCCCCCCCCCCCCCCCCCCCO`, for which the “solvation free energy, 298 K” value was -16.2 kcal/mol (in CC(C)O), -16.4 kcal/mol (in CCCCCCCCCCO), -16.4 kcal/mol (in CCCCCCCCO) and -16.5 kcal/mol (in CCCCCCO).

Consider `C=CC1CC=CCC1` (centres undefined), for which the “solvation free energy, 298 K” value was -4.94 kcal/mol (in CCCCCCCCCCCCCCCC), -4.42 kcal/mol (in COCCO), -3.97 kcal/mol (in CS(C)=O) and 0.36 kcal/mol (in O).

With `CCCC[N+](=O)[O-]`, the “solvation free energy, 298 K” value is -4.64 kcal/mol (in CCCCCC) and -3.1 kcal/mol (in O).

As for `COc1cc(C=O)c(Cl)c(OC)c1O`, the “solvation free energy, 298 K” value (in O) was -7.78 kcal/mol.
